Results reported in patent publication US20240285635A1, “USE OF PYRROLOPYRIMIDINE COMPOUND AND PHARMACEUTICAL COMPOSITION THEREOF FOR TREATING CHRONIC GRAFT VERSUS HOST DISEASE” (CHIA TAI TIANQING PHARMACEUTICAL GROUP CO., LTD., priority 2021, published 2024).
Values joined by “and” are separate entries in the source; they are usually repeats but may differ in a detail not shown here. Identical values can stand only once. “Also recorded” adds a separate entry of the source.

Tested on: glucocorticoid-refractory/dependent moderate and severe cGVHD subjects
Assay: Clinical study of tablets of the compound of formula I in glucocorticoid-refractory/dependent moderate and severe cGVHD subjects
Type: in vivo, human
Parameters: key to C1 organ score and efficacy: efficacy / C3 organ score and efficacy: efficacy / C6 organ score and efficacy: efficacy / C9 organ score and efficacy: efficacy / C12 organ score and efficacy: efficacy: Complete response (CR): all reversible clinical symptoms of cGVHD were completely alleviated; Partial response (PR): there was improvement in at least one organ or site, but no improvement in all other organs or sites; Stable disease (SD): cGVHD clinical performance was not worsened compared to baseline; Disease progression (PD): any one organ or site was worsened
Experimental: As used herein, 2014 NIH cGVHD meeting consensus criteria was used for clinical diagnosis, disease grading, and evaluation of disease status or effectiveness.
As used herein, the severity of adverse events was determined using the NCI-CTC AE 5.0 criteria.
The subjects of the study were glucocorticoid-refractory/dependent moderate and severe cGVHD subjects. The safety and the tolerability of the tablets of the compound of formula I in the glucocorticoid-refractory/dependent moderate and severe cGVHD subjects were evaluated, and the efficacy and the safety of the tablets of the compound of formula I in the glucocorticoid-refractory/dependent moderate and severe cGVHD subjects were further evaluated.
Method of administration: orally administered twice daily at fasting, with 28 consecutive days of administration as one treatment cycle.
Drug: the tablets of the compound of formula I with 5 mg or 20 mg of the active ingredient, the compound of formula I being its stereoisomer, a compound of formula II
During the study, the investigator would evaluate the cGVHD activity through NIH consensus on cGVHD to define the response effect and make a record accordingly.
Complete response (CR): all reversible clinical symptoms of cGVHD were completely alleviated. Irreversible clinical manifestations would be defined by NIH consensus criteria.
Partial response (PR): there was improvement in at least one organ or site, but no improvement in all other organs or sites.
Stable disease (SD): cGVHD clinical performance was not worsened compared to baseline.
Disease progression (PD): any one organ or site was worsened. In addition, the emergence of new clinical manifestations of cGVHD was also counted as progression.
Objective response rate (ORR): refers to the percentage of subjects in complete response (CR) or partial response (PR) as determined by the investigator according to NIH cGVHD response assessment.
Best objective response rate (ORR): refers to the percentage of subjects whose best response was complete response (CR) or partial response (PR) as determined by the investigator according to NIH cGVHD response assessment.

[1] = 10 mg bid oral, cycle C1, individual subjects
[2] = 10 mg bid oral, cycle C1, individual subjects 1-4
[3] = 10 mg bid oral, cycle C3, individual subjects
[4] = 10 mg bid oral, cycle C3, individual subjects 1-4
[5] = 10 mg bid oral, cycle C6, individual subjects
[6] = 10 mg bid oral, cycle C6, individual subjects 1-4
[7] = 10 mg bid oral, cycle C9, individual subjects
[8] = 10 mg bid oral, cycle C9, individual subjects 1-4
[9] = 10 mg bid oral, cycle C12, individual subjects
[10] = 10 mg bid oral, cycle C12, individual subjects 1-2
[11] = 15 mg bid oral, cycle C1, individual subjects
[12] = 15 mg bid oral, cycle C1, individual subjects 5-8
[13] = 15 mg bid oral, cycle C3, individual subjects
[14] = 15 mg bid oral, cycle C3, individual subjects 5-8
[15] = 15 mg bid oral, cycle C6, individual subjects
[16] = 15 mg bid oral, cycle C6, individual subjects 5-8
[17] = 15 mg bid oral, cycle C9, subject 5
[18] = of the patients evaluated in Table 2, 10 or 15 mg bid

N#CC[C@H](C1CCCC1)n1cc(-c2ncnc3[nH]ccc23)c(N)n1 [compound of formula I]
C1 organ score: esophagus [1]: 1 point for points | C1 organ score: eye [1]: skin, 1 point points (2×) and 1 point for eye, points (2×) | C1 organ score: joint [1]: 1 point for points and 1 points | C1 organ score: lung [1]: 3 points for (2×) and 0 points for | C1 organ score: lung, percentage in parentheses [1]: lung (34.4%), and lung (81.8%), and 25% | C1 organ score: oral cavity [1]: 1 point for points | C1 organ score: skin [1]: 1 point for points and 3 points for | C1 organ score: upper digestive tract [1]: 1 point for points | C1 organ score and efficacy: comprehensive score [2]: score 6;; also recorded: score 1;; also recorded: score 2; | C1 organ score and efficacy: efficacy [2]: efficacy: PR | C3 organ score: esophagus [3]: 1 point for points | C3 organ score: eye [3]: 1 point for eye, points | C3 organ score: joint [3]: 1 point for points and 1 points | C3 organ score: joint fascia [3]: 2 points for | C3 organ score: lung [3]: 0 points for | C3 organ score: lung, percentage in parentheses [3]: lung (31%), and lung (81.0%), and 28.1% | C3 organ score: skin [3]: 1 point for points | C3 organ score: upper digestive tract [3]: 0 points for | C3 organ score and efficacy: comprehensive score [4]: score 5;; also recorded: score 1; | C3 organ score and efficacy: efficacy [4]: efficacy: PR | C6 organ score: esophagus [5]: 1 point for points | C6 organ score: eye [5]: 1 point for eye, points | C6 organ score: joint [5]: 1 point for points and 1 points | C6 organ score: joint fascia [5]: 2 points for | C6 organ score: lung [5]: 3 points for (2×) and 0 points for | C6 organ score: lung, percentage in parentheses [5]: lung (33%), and lung (80%), and 25.0% | C6 organ score: skin [5]: 1 point for points and 2 points for | C6 organ score: upper digestive tract [5]: 0 points for | C6 organ score and efficacy: comprehensive score [6]: score 5;; also recorded: score 1; | C6 organ score and efficacy: efficacy [6]: efficacy: PR | C9 organ score: esophagus [7]: 1 point for points and 0 points for | C9 organ score: eye [7]: skin, 0 points (2×) and 1 point for eye, points (2×) | C9 organ score: joint [7]: 1 point for points and 1 points | C9 organ score: lung [7]: 3 points for (2×) and 0 points for | C9 organ score: lung, percentage in parentheses [7]: lung (35.1%), and 26.6% | C9 organ score: skin [7]: 0 points for | C9 organ score: upper digestive tract [7]: 0 points for | C9 organ score and efficacy: comprehensive score [8]: score 5;; also recorded: score 0;; also recorded: score 1; | C9 organ score and efficacy: efficacy [8]: efficacy: PR; also recorded: efficacy: CR | C12 organ score: esophagus [9]: 1 point for points | C12 organ score: eye [9]: skin, 0 points | C12 organ score: joint fascia [9]: 2 points for | C12 organ score: lung [9]: 3 points for | C12 organ score: lung, percentage in parentheses [9]: lung (35.1%), | C12 organ score: skin [9]: 0 points for | C12 organ score: upper digestive tract [9]: 0 points for | C12 organ score and efficacy: comprehensive score [10]: score 5;; also recorded: score 0; | C12 organ score and efficacy: efficacy [10]: efficacy: PR; also recorded: efficacy: CR | C1 organ score: esophagus [11]: 0 points for | C1 organ score: eye [11]: skin, 1 point points; also recorded: skin, 2 points | C1 organ score: joint fascia [11]: 1 points and 1 point for points | C1 organ score: lower digestive tract [11]: 1 point for points | C1 organ score: lung [11]: tract, 3 points and 3 points for | C1 organ score: lung, percentage in parentheses [11]: 20.5% and lung (28.7%), and lung (55%), | C1 organ score: skin [11]: 1 point for points and 3 points for | C1 organ score and efficacy: comprehensive score [12]: score 8;; also recorded: score 6;; also recorded: score 3;; also recorded: score 7; | C1 organ score and efficacy: efficacy [12]: efficacy: PR; also recorded: efficacy: SD | C3 organ score: esophagus [13]: 0 points for | C3 organ score: joint fascia [13]: 1 points and 1 point for points and 2 points for | C3 organ score: lower digestive tract [13]: 1 point for points | C3 organ score: lung [13]: tract, 3 points | C3 organ score: lung, percentage in parentheses [13]: 17% and lung (27.8%), and lung (55%), | C3 organ score: skin [13]: 1 point for points | C3 organ score and efficacy: comprehensive score [14]: score 8;; also recorded: score 5;; also recorded: score 2;; also recorded: score 7; | C3 organ score and efficacy: efficacy [14]: efficacy: PR; also recorded: efficacy: SD | C6 organ score: esophagus [15]: 0 points for and 1 point for points | C6 organ score: joint fascia [15]: 1 points and 0 points for and 2 points for | C6 organ score: lower digestive tract [15]: 1 point for points | C6 organ score: lung [15]: tract, 3 points and 3 points for and 2 points for | C6 organ score: lung, percentage in parentheses [15]: 15.9% and lung (28.4%), and lung (52.7%), | C6 organ score: skin [15]: 2 points for (2×) and 1 point for points (2×) | C6 organ score and efficacy: comprehensive score [16]: score 8;; also recorded: score 4;; also recorded: score 2;; also recorded: score 6; | C6 organ score and efficacy: efficacy [16]: efficacy: PR | C9 organ score and efficacy: comprehensive score [17]: score 6; | C9 organ score and efficacy: efficacy [17]: efficacy: PR | C9 organ score: eye [17]: skin, 2 points | C9 organ score: joint fascia [17]: 0 points | C9 organ score: lower digestive tract [17]: 0 points for | C9 organ score: lung [17]: tract, 3 points | C9 organ score: lung, percentage in parentheses [17]: 17.6% | C9 organ score: skin [17]: 0 points for | patients in complete response (CR) [18]: 1 patient | patients in partial response (PR) [18]: 7 patients | clinical benefit in the treatment of chronic graft-versus-host disease (patients evaluated in Table 2): clinical benefits | tolerability and safety (tablets, cGVHD subjects): good tolerability and safety
